Measured values as given in patent US8809368B2, “Compounds affecting gap junction activity” (Kansas State University Research Foundation, priority 2006, dated 2014).
Values after ≈ are worked out from the molar mass of the structure shown. Values joined by “and” are separate entries in the source; they are usually repeats but may differ in a detail not shown here. Equal entries are not always repeated.

Experiments:
Trypanosoma brucei = experiment: Anti-trypanosomal activity, inhibition of T. brucei growth (ATP-bioluminescence luciferase assay); type: cell-based; conditions: read-out: IC50 against Trypanosoma brucei
Procedure: The antiparasitic activities of exemplary compounds described here was studied using the anti-trypanosomal activity protocol described in: Rapp M, et al. J Med Chem 2006; 49:2096-102. […] FIG. 1 summarizes the compound inhibition of T. brucei growth. It is seen that compounds of the invention are useful in inhibiting T. brucei growth.
Culturing of Parasites. The bloodstream form of Trypanosoma brucei 427 strain was maintained under the standard cell culture conditions (37° C., 5% CO2). The parasites were grown in complete HMI-9 medium containing 10% FBS, 10% Serum Plus and 1× Penicillin/Streptomycin. (Angew. Chem. Int. Ed. Engl. 2003, 42, 5274-5293).
Luciferase Assay. Luciferase assay was used to measure ATP-bioluminescence in T. brucei cultured in 96-well plates at 37° C. for 48 hours. Parasites were diluted to 1.0×10^5 cells/mL in complete HMI-9 medium. One hundred microliters (100 μL) of the diluted parasites were aliquoted into sterile 96-well flat white opaque culture plates (Greiner). Each compound was serially diluted from 10 μM to 0.1 μM in DMSO and then mixed in the appropriate wells containing parasites. The treated parasites were then incubated for 48 hours at 37° C. with 5% CO2 before monitoring viability. To measure the viability of the parasites after treatment with each compound, the parasites were lysed in the wells by adding 100 μL of CellTiter-Glo™ (Promega). After lysis, the ATP bioluminescence of the 96-well plates was measured with a SpectraFluor Plus multidetection plate reader (Tecan).

R28 cells = experiment: Dye transfer/scrape loading gap junction assay in R28 cells; type: cell-based, rat; conditions: 10 μM for 40 minutes
Procedure: To determine the effects of the compounds of the invention on gap junctions, […] R28 cells and lucifer yellow dye and rhodamine dextran were used to study gap junction. (Das, S.; Lauer, J.; Barnett, M.; Lin, D.; Akoev, V.; Battina, S.; Hua, D. H.; Takemoto, D. J. PKCγ phosphorylates connexin50 on serine-430. A presentation at 2006 ARVO Annual Meeting, Apr. 30-May 4, 2006, Fort Lauderdale, Fla.). […] The cells were treated with different compounds as shown @ 10 μM for 40 minutes. A mixture of lucifer yellow (LY) and rhodamine dextran (RD) was added to the cells at the center of the coverslip. Two cuts across the coverslip were made to form a transient tear in the plasma membranes of the cells to permit dye transfer through gap junctions. Cells were incubated with the dye for 20 minutes, then fixed and examined by fluorescent microscopy. For quantitative analysis the extent of dye transfer was estimated by counting the number of LY and RD labeled cells in the microscopic field and graphed. […] PQ3 is useful as a drug having reduced gap junction inhibitory activity. The gap junction activity of other compounds of the invention may be tested as described herein without the use of undue experimentation.
Gap junction activity assay. R28 cells were grown to 90% confluency on coverslips. They were treated with PQ1 at 10 μM for 40 min. A mixture of 1% each, in PBS, Lucifer yellow (LY) and Rhodamine Dextran (RD) (Molecular Probes, Eugene, Oreg.) were added to the cells at the center of the coverslip. Two cuts across the coverslip were made to form a transient tear in the plasma membranes of the cells to permit dye entry into cells. Cells were incubated with 2.5 μl of both of the dyes for 20 min, then fixed in 2.5% paraformaldehyde, washed in PBS and examined by fluorescent microscopy using a Nikon C1 confocal microscopy. For quantitation, the extent of dye transfer was calculated by counting the number of LY-labeled cells from the initial scrape with subtraction of RD-labeled cells, as a cell damage control, in the microscopic field. Four points per slide were photographed. The experiments were repeated six times, and data are means±SEM.

[1] = tested on: MDA-MB-453 human breast cancer cells; experiment: Soft agar colony growth, MDA-MB-453 cells; type: cell-based; conditions: for effect on breast cancer cell colony growth: Table 2
Procedure: FIG. 3(A) MDA-MB-453 and (B) T47D human breast cancer cells were treated with 10 μM of various quinolines for 7 days. Base agar plates were prepared containing 0.8% agar and 0.4% agar in Ham's F12. Cells (5×10^4 cells/33 mm well) were suspended in 100 μl of Ham's F12 with 0.4% agar and plated. These plates were maintained at 37° C. for 7 days and examined for the presence of colonies. Individual colonies of 40 μm or greater were examined. […] However, PQ3 caused a 2.3-fold increase in colony growth in MDA-MB-453 cells and PQ2 caused a 2.6-fold increase in T47D colony growth compared to DMSO. FIGS. 7 and 8 show MDA-MB-453 and T47D colony growth for various concentrations of PQ1 and SA tested for 7 days. The procedures are generally as described above. The cell colony growth decreased using 10 and 100 nM PQ1 for both cell types. Colony Growth Assay: T47D human breast cancer cells were treated with PQ1. Base agar plates were prepared containing 0.8% agar and 0.4% agar in Ham's F12. Cells (5×10^4 cells/33 mm2 well) were suspended in 100 μl of Ham's F12 with 0.4% agar and plated. These plates were maintained at 37° C. for 7 days and examined for the presence of colonies. Individual colonies of 40 um or greater were examined.

MDA-MB-453 cells = experiment: Gap junction activity (GJIC), flow cytometry of dye coupling, MDA-MB-453 cells; type: cell-based, human; conditions: for effect on gap junction intercellular communication: Table 1
Procedure: FIG. 4(A) MDA-MB-453 and (B) T47D cells were treated with low (500 nM) and high (10 μM) concentrations of PQs for 24 hours. Monolayers of acceptor cell population were grown on 25-cm flasks in the presence of Vibrant DiD. Vybrant DiD in acceptor cells is not able to pass through the gap junctions because of its hydrophobic property. Single cell suspensions of donor treated cells were prepared, labeled with 0.05 μg/ml calcein-AM, incubated at 37 C for 5 minutes. Quantification of dye coupling between the donor and acceptor cells was assessed by dual-excitation flow cytometry. […] Cells treated with 10 μM PQ3 have approximately 40-50% decrease in gap junction activity compared control or DMSO.

MCF-7 = experiment: Gap junction intercellular communication, MCF-7 cells; type: cell-based, human; conditions: Table 1
ZR75 = experiment: Gap junction intercellular communication, ZR75 cells; type: cell-based, human; conditions: Table 1
HT29 = experiment: Gap junction intercellular communication, HT29 colon cancer cells; type: cell-based; conditions: Table 3

| Compound | IC50 (Trypanosoma brucei) | block of lucifer yellow dye transfer through gap junctions (R28 cells; compared to untreated control cells) | colony growth attenuation ([1]; 10 μM, 7 days, compared to control) | cell colony growth ([1]; 10 and 100 nM, 7 days) | effect on breast cancer cell colony growth [1] | increase of gap junction activity (MDA-MB-453 cells; MDA-MB-453, 500 nM, 24 hours, compared to control) | increase in GJIC (MDA-MB-453 cells; MDA-MB-453, FIG. 4, 24 hours) | effect on gap junction intercellular communication (MDA-MB-453 cells; MDA-MB-453, 500 nM) | effect on gap junction intercellular communication (MCF-7) | effect on gap junction intercellular communication (ZR75) | effect on gap junction intercellular communication (HT29) | inhibition at 10 µM (R28 cells; Rattus norvegicus, R28, 40 min, as compared with the control, read-out: inhibitory activity on gap junction dye transfer) | decrease in gap junction activity (GJIC) (MDA-MB-453 cells; 10 μM, 24 hours, compared to control or DMSO) | effect on gap junction intercellular communication (MDA-MB-453 cells; MDA-MB-453, concentration not given) |
| --- | --- | --- | --- | --- | --- | --- | --- | --- | --- | --- | --- | --- | --- | --- |
| COc1cc(NCCCN)c2nccc(C)c2c1Oc1cccc(C(F)(F)F)c1.O=C(O)CCC(=O)O [PQ1, 6-Methoxy-8-[(3-aminopropyl)amino]-4-methyl-5-(3-trifluoromethylphenyloxy) quinoline succinic acid] | 0.34 µg/mL | hardly any passage of the dye | 80-95% | decreased | Decrease | 1.5 fold | 20-50% | Increase | No effect | Decrease | No effect |  |  |  |
| COc1cc(N)c2nccc(C)c2c1Oc1cccc(C(F)(F)F)c1 [PQ3, 8-Amino-6-methoxy-4-methyl-5-(3-trifluoromethylphenyloxy)quinoline] | 1.08 µg/mL (≈ 3.11 µM) |  |  |  | Increase |  |  |  | Decrease | No effect | Increase | ~20% | 40-50% and 50% | Decrease |
